# Measurements from ChEMBL document CHEMBL1201862, “PubChem BioAssay data set” (2004).
# Activity calls are given as the source filed them.
# Experiments:
# [1] = target: T1, Neuropeptides B/W receptor type 1 (Homo sapiens, UniProt P48145); assay: GPR7 antagonist potency, late-stage follow-up, cell-based, fluorescence, dose response, set 5 (AID 588566); type: functional
# [2] = target: T2, Melanin-concentrating hormone receptor 1 (Homo sapiens, UniProt Q99705); assay: Late-stage fluorescence-based counterscreen for antagonists of the G-protein coupled receptor 7 (GPR7): cell-based dose response assay to identify antagonists of the melanin-concentrating hormone receptor 1 (MCHR1) Set 5.; type: functional
# T2 sequence (Q99705 whole entry): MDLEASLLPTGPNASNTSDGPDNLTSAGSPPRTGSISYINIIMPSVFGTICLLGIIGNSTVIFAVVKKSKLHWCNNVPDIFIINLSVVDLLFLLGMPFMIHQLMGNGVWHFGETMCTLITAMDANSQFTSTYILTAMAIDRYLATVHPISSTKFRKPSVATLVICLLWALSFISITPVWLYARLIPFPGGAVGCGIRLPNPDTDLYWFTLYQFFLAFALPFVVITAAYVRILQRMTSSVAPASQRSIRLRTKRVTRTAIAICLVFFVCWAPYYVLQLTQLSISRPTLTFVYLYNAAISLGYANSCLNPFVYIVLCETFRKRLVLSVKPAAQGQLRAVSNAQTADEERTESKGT
# [3] = target: Benomyl/methotrexate resistance protein (Candida albicans, UniProt P28873); assay: CaMdr1 efflux pump inhibitor potency, dose response, singleplex, Cherry Pick2 set (AID 623992); type: functional; settings: read-out: EC50_MICROM
# [4] = HIV-1 Env-mediated cell fusion inhibitors, dose response, CCR5-tropic Env (AID 2279); type: functional
# [5] = A Cell Based Secondary Assay to Explore Cytotoxicity in HepG2 Cells of Compounds that Modulate Mycobacterium tuberculosis in Media Containing Glycerol versus Media without Glycerol (2).; type: functional
# [6] = A Cell Based Secondary Assay to Explore Cytotoxicity in THP-1 Cells of Compounds that Modulate Mycobacterium tuberculosis in Media Containing Glycerol versus Media without Glycerol (2).; type: functional
# [7] = Vero cell cytotoxicity, cytotoxicity control for M. tuberculosis inhibitor project, purified and synthesized samples, set 3 (AID 504684); type: functional
# [8] = microbe, parasite or virus in culture; type: functional; settings: Mycobacterium tuberculosis
# [9] = target: T3, Sentrin-specific protease 7 (Homo sapiens, UniProt Q9BQF6); assay: SENP7 protease inhibitors, SAR follow-up, biochemical, luminescence (AID 504497); type: functional
# T3 sequence (Q9BQF6 whole entry): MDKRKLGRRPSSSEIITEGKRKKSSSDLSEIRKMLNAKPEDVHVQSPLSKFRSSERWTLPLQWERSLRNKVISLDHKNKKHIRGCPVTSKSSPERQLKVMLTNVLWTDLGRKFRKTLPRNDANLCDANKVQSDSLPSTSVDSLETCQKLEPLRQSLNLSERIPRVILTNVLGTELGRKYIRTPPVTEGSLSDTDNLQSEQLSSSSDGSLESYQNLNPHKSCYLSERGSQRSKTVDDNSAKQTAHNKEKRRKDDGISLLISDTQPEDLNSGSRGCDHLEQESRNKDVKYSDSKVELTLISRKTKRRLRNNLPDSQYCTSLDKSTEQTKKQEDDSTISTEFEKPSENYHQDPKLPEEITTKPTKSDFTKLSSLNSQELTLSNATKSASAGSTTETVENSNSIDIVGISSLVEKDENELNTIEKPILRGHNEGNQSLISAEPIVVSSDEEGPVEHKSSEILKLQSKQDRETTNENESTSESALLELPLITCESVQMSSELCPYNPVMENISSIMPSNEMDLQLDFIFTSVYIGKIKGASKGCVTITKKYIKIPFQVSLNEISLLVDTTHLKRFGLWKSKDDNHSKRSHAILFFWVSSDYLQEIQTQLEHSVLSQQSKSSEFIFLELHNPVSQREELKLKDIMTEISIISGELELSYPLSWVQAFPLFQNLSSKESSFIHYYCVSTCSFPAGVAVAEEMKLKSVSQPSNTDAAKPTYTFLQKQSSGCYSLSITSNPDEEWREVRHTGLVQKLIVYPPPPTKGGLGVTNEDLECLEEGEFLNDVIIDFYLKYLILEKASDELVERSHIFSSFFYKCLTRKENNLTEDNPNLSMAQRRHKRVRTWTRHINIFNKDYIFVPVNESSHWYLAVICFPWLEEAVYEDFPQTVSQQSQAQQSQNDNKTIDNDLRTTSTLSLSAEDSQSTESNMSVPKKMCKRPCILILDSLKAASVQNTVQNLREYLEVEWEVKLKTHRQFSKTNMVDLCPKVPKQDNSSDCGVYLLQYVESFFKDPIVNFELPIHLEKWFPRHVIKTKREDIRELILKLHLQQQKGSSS
# [10] = target: T4, Caspase-3 (Homo sapiens, UniProt P42574); assay: SAR Analysis of small molecule inhibitors of Sentrin-specific proteases (SENPs) using a Caspase-3 Selectivity assay. [Related pubchem assays (depositor defined):AID2540, AID2599, AID434973, AID489001]; type: functional
# T4 sequence (P42574 whole entry): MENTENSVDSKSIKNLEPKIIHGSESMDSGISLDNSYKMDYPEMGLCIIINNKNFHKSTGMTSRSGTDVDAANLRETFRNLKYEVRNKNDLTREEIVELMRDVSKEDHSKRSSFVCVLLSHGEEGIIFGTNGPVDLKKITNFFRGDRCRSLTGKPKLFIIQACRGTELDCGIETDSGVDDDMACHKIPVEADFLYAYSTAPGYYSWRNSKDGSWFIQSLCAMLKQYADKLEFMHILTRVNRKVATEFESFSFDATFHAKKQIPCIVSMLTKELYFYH
# [11] = target: T5, Sentrin-specific protease 6 (Homo sapiens, UniProt Q9GZR1); assay: SAR Analysis of small molecule inhibitors of Sentrin-specific protease 6 (SENP6) using a Luminescent assay. [Related pubchem assays (depositor defined):AID2582, AID2599]; type: functional
# T5 sequence (Q9GZR1 whole entry): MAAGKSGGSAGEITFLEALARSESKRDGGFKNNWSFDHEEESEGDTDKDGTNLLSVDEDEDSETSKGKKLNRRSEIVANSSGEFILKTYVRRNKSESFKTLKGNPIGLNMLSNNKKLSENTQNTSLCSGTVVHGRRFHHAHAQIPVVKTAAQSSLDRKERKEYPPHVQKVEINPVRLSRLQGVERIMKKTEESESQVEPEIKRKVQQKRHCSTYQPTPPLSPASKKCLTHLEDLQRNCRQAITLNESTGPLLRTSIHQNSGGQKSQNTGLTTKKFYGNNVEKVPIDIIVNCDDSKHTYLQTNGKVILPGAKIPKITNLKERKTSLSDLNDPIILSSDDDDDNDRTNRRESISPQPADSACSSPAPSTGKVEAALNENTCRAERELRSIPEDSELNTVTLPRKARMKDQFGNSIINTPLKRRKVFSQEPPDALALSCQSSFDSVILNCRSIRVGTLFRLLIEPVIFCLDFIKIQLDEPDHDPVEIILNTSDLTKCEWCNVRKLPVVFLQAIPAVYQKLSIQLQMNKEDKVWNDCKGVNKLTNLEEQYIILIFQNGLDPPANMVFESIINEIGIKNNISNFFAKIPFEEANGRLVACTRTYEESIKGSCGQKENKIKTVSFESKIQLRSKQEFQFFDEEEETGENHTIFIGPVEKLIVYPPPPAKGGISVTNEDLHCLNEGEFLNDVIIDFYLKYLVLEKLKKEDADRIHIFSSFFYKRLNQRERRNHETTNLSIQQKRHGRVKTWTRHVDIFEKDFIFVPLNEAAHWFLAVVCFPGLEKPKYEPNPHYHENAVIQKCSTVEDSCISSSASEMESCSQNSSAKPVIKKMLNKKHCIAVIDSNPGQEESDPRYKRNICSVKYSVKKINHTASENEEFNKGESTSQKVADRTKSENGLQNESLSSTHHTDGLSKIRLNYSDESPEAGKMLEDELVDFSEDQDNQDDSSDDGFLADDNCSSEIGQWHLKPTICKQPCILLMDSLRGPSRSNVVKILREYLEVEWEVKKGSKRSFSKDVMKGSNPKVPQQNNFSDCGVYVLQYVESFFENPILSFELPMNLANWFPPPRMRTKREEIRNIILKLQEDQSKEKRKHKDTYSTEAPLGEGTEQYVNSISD
# [12] = target: T6, Sentrin-specific protease 8 (Homo sapiens, UniProt Q96LD8); assay: SENP8 protease inhibitors, SAR follow-up, biochemical, luminescence (AID 504501); type: functional
# T6 sequence (Q96LD8 whole entry): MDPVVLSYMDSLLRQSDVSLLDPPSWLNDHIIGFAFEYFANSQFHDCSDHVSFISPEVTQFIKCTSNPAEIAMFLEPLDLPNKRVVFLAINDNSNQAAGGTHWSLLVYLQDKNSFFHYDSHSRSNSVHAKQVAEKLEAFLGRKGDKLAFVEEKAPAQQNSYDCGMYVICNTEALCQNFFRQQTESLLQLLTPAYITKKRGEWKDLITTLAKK
# [13] = target: Misshapen-like kinase 1 (Homo sapiens, UniProt Q8N4C8); type: functional;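 note: kinome panel screen with MINK as the panel member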
# [14] = target: Protein kinase C delta type (Homo sapiens, UniProt Q05655); type: functional
# [15] = target: Mitogen-activated protein kinase kinase kinase kinase 4 (Homo sapiens, UniProt O95819); type: functional
# Sequence of Mitogen-activated protein kinase kinase kinase kinase 4 (O95819 whole entry): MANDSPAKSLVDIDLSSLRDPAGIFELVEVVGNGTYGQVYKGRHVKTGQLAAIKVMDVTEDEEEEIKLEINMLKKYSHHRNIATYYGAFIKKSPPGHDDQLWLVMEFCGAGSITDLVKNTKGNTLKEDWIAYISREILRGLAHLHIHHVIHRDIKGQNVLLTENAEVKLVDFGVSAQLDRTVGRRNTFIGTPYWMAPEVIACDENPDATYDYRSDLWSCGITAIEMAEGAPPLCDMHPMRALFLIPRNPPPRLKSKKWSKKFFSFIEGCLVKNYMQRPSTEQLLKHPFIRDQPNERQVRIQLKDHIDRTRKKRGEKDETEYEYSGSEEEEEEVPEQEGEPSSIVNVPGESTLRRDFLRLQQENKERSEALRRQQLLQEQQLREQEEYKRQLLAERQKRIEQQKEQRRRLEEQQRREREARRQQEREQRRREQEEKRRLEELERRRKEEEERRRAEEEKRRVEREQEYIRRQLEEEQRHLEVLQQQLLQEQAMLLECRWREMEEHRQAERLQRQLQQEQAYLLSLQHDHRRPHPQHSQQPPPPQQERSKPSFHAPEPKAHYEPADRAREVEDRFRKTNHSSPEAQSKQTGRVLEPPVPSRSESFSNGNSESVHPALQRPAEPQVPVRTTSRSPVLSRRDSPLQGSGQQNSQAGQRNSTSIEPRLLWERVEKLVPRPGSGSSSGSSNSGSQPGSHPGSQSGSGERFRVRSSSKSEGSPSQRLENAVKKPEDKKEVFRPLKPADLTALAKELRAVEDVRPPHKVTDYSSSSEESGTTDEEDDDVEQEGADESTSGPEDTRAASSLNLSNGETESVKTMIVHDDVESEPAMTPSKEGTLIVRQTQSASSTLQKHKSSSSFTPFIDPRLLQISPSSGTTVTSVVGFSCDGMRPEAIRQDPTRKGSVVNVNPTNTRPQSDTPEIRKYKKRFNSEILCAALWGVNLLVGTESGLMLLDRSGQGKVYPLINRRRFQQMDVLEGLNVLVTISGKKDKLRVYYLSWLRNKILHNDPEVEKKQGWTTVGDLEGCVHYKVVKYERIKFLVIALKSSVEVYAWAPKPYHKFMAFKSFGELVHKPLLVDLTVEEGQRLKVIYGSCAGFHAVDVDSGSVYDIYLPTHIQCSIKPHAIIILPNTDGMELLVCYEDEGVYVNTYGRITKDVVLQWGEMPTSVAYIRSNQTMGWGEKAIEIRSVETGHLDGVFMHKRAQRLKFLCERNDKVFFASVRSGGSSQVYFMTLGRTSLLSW
# [16] = target: Cyclin-dependent kinase 2 (Homo sapiens, UniProt P24941); type: functional;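 note: CDK2 measured as one member of a broad kinome profiling panel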
# [17] = target: cAMP-dependent protein kinase catalytic subunit alpha (Homo sapiens, UniProt P17612); type: functional
# [18] = target: Cell division cycle 7-related protein kinase (Homo sapiens, UniProt O00311); type: functional;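 note: value obtained from a kinome-wide kinase panel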
# [19] = target: Dual specificity protein kinase CLK4 (Homo sapiens, UniProt Q9HAZ1); type: functional
# [20] = target: Homeodomain-interacting protein kinase 2 (Homo sapiens, UniProt Q9H2X6); type: functional;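 note: measured within a kinome-wide kinase profiling panel, HIPK2 being one panel member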
# [21] = target: Interleukin-1 receptor-associated kinase 4 (Homo sapiens, UniProt Q9NWZ3); type: functional
# [22] = target: Serine/threonine-protein kinase pim-1 (Homo sapiens, UniProt P11309); type: functional
# Sequence of Serine/threonine-protein kinase pim-1 (P11309 whole entry): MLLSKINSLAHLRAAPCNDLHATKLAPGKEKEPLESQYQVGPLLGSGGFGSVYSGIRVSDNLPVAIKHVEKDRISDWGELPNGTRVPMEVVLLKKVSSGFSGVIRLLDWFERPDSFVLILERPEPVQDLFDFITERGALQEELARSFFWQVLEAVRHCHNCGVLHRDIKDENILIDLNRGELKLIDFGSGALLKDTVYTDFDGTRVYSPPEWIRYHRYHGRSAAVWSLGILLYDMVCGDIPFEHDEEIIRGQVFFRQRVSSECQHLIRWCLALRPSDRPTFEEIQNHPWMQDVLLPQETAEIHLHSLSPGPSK
# [23] = target: Glycogen synthase kinase-3 beta (Homo sapiens, UniProt P49841); type: functional;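 note: value comes from a broad kinome profiling panel, with GSK3B as the panel member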
# [24] = target: Insulin-like growth factor 1 receptor (Homo sapiens, UniProt P08069); assay: Navigating the Kinome. Panel member name: IGF1R; type: functional
# Sequence of Insulin-like growth factor 1 receptor (P08069 31-736 limits assumed): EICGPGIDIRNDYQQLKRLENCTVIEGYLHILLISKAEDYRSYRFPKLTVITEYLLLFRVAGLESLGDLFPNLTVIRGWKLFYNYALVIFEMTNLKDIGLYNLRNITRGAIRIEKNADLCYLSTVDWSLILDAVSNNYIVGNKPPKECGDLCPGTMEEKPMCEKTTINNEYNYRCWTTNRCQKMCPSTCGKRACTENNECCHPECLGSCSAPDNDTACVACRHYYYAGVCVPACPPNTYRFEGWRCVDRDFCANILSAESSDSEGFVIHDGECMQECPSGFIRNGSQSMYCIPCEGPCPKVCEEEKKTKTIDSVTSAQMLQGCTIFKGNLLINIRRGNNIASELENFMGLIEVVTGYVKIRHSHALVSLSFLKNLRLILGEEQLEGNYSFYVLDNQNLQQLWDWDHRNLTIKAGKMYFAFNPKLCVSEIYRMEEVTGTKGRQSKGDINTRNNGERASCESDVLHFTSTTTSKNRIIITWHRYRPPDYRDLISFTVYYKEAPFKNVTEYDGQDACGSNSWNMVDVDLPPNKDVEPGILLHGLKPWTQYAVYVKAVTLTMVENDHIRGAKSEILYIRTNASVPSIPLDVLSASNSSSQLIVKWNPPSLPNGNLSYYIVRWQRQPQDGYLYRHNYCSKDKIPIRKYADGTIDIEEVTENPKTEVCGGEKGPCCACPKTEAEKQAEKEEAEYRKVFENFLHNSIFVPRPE
# Sequence of Insulin-like growth factor 1 receptor (P08069 741-1367 limits assumed): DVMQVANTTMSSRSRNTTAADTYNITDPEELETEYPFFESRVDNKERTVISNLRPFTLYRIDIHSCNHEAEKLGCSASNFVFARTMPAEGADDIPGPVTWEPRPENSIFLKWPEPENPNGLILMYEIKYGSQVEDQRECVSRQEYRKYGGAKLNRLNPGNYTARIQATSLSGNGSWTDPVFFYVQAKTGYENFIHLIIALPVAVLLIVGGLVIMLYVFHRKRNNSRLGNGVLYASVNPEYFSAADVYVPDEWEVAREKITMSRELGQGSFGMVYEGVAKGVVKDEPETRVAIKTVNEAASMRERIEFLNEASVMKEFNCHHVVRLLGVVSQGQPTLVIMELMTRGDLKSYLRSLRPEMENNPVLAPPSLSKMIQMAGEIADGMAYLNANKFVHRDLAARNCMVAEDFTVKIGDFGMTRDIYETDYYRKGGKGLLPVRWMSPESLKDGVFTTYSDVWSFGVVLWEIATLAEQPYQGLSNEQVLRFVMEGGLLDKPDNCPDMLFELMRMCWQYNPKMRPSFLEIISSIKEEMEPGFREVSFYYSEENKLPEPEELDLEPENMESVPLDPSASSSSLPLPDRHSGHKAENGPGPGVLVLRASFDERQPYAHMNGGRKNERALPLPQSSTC
# [25] = target: Fibroblast growth factor receptor 3 (Homo sapiens, UniProt P22607); type: functional
# [26] = target: Tyrosine-protein kinase SYK (Homo sapiens, UniProt P43405); type: functional
# [27] = target: Focal adhesion kinase 1 (Homo sapiens, UniProt Q05397); type: functional;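 note: measured as one member of a kinome panel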
# [28] = target: Leucine-rich repeat serine/threonine-protein kinase 2 (Homo sapiens, UniProt Q5S007); type: functional;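 note: value from a broad kinome-wide panel profiling study in which LRRK2 was one of the kinases tested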
# [29] = target: Tyrosine-protein kinase ABL1 (Homo sapiens, UniProt P00519); type: functional
# Sequence of Tyrosine-protein kinase ABL1 (P00519 whole entry): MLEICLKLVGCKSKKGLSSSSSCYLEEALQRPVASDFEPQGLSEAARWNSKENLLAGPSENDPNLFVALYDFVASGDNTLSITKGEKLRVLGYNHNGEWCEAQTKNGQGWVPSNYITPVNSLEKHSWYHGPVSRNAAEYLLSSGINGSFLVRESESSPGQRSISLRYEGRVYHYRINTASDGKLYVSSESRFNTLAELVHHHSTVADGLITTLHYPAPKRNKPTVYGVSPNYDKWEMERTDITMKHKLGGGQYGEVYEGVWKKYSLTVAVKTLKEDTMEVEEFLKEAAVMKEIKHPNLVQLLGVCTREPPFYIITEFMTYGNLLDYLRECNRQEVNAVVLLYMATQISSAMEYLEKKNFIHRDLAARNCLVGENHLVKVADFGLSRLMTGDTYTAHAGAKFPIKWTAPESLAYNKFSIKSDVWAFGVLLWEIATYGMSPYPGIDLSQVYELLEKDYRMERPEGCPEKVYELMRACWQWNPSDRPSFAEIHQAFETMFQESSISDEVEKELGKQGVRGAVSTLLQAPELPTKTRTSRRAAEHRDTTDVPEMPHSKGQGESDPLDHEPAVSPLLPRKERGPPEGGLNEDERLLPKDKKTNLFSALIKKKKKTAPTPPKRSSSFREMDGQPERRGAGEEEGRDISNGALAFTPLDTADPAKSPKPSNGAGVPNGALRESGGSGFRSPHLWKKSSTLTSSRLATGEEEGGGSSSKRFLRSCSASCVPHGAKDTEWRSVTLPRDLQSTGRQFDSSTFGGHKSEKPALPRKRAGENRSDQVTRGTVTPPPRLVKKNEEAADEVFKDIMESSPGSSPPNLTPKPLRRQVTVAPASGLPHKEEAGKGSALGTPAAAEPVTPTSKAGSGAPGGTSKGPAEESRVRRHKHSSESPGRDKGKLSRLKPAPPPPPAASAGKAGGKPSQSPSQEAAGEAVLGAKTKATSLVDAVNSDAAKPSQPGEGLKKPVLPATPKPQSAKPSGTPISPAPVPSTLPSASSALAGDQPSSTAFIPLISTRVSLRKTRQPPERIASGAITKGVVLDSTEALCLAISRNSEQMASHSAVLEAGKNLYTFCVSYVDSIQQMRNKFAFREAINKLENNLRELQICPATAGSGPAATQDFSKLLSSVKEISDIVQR
# [30] = target: Hepatocyte growth factor receptor (Homo sapiens, UniProt P08581); type: functional;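 note: kinase panel profiling across the kinome, with MET as the panel member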
# [31] = target: T2, Melanin-concentrating hormone receptor 1; assay: Late-stage fluorescence-based counterscreen for antagonists of the G-protein coupled receptor 7 (GPR7): cell-based dose response assay to identify antagonists of the melanin-concentrating hormone receptor 1 (MCHR1) Set 6.; type: functional
# [32] = target: T1, Neuropeptides B/W receptor type 1; assay: GPR7 antagonist potency, late-stage follow-up, cell-based, fluorescence, dose response, set 6 (AID 588583); type: functional
# [33] = nonselective inhibitors of cellular cAMP signaling, dose response, counter-screen for MC4R biased antagonist project, cell-based, TR-FRET cAMP detection (AID 602305); type: functional;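 note: U2OS cells stimulated with forskolin near its EC80 as the cAMP inducer; potency is for inhibition of forskolin-stimulated cAMP signaling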
# [34] = target: Melanocortin receptor 4 (Homo sapiens, UniProt P32245); assay: MC4R antagonist potency on cAMP, dose response, cell-based, TR-FRET, biased antagonists (AID 602298); type: functional;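 note: antagonist potency against agonist-stimulated cAMP production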
# Sequence of Melanocortin receptor 4 (P32245 whole entry): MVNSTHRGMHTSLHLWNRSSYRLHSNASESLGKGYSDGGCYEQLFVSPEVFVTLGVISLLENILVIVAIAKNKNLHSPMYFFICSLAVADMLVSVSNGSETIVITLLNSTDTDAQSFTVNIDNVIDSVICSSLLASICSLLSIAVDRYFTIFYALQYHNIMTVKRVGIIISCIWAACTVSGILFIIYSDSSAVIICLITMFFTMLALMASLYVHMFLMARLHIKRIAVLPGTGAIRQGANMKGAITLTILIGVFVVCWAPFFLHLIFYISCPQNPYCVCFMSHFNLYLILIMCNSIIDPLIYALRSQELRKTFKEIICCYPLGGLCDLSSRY
# [35] = cytotoxicity in HEK-293T cells, dose response, cytotoxicity control for BCR NF-kB inhibitor project, luminescence, B-cell screen hits (AID 489021); type: functional, cell-based;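 note: HEK-293T cells carrying an NF-kB luciferase reporter; cells exposed to compound for about 14 hours before viability readout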
# [36] = target: DNA dC->dU-editing enzyme APOBEC-3A (Homo sapiens, UniProt P31941); assay: SAR analysis of small molecule inhibitors of APOBEC3A DNA Deaminase via a fluorescence-based single-stranded DNA deaminase assay.; type: functional; settings: read-out: IC50_Mean
# [37] = target: DNA dC->dU-editing enzyme APOBEC-3G (Homo sapiens, UniProt Q9HC16); assay: APOBEC3G deaminase inhibitors, SAR follow-up, biochemical, fluorescence, single-stranded DNA substrate (AID 602136); type: functional; settings: read-out: IC50_Mean
# T1 sequence (P48145 whole entry): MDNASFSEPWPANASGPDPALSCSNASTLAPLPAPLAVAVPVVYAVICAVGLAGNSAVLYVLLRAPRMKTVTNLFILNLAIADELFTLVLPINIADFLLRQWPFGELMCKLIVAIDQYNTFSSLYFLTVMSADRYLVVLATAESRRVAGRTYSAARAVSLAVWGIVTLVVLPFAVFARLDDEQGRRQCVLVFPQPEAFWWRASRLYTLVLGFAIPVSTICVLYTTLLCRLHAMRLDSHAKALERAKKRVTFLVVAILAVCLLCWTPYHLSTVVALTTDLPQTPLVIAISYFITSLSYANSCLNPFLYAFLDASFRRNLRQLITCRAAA
compound,measurement,setting,value
COc1c(F)cc(Oc2c(Cl)cnn(Cc3cccc4ccccc34)c2=O)cc1F,IC50,[1],2.2 µM (active)
same,IC50,[2],7.43 µM (active)
O=C(c1ccc2c(c1)OCO2)N1CCC2(CC1)Oc1ccc(F)cc1C(=O)C21CC(c2ccccc2)=NO1 (stereo not drawn),EC50,[3],9.25 µM (active)
CC(C)NC(=O)c1sc(=S)n2c1[nH]c(=O)c1ccc(C(=O)NCCc3ccc(Cl)cc3)cc12,IC50,[4],41.5 µM (active)
same,CC50,[5],> 50 µM (active)
same,CC50,[6],> 100 µM (active)
same,CC50,[7],> 100 µM (active)
same,CC50,[8],> 40 µM (active)
Clc1ccc(N/N=C/c2c[nH]c3ccccc23)cc1,IC50,[9],57 µM (active)
same,IC50,[10],> 99 µM (inactive)
same,IC50,[11],> 99 µM (inactive)
same,IC50,[12],> 99 µM (inactive)
CC(C)Oc1ccc(-c2noc(-c3ccc(OCC(O)CO)cc3)n2)cc1Cl (stereo not drawn),Ki,[13],6.31 µM (active)
same,Ki,[14],7.94 µM (active)
same,Ki,[15],2 µM (active)
O=c1cc(-c2ccc(F)cc2)[nH]c2c(-c3ccc(F)cc3)cnn12,Ki,[16],> 7.94 µM (inactive)
same,Ki,[17],> 7.94 µM (inactive)
same,Ki,[18],0.0501 µM (active)
same,Ki,[19],0.158 µM (active)
same,Ki,[20],0.2 µM (active)
same,Ki,[15],> 10 µM (inactive)
same,Ki,[21],> 10 µM (inactive)
same,Ki,[22],0.0501 µM (active)
same,Ki,[23],0.501 µM (active)
c1ccc(CNc2nc(Nc3cc(C4CC4)[nH]n3)c3sccc3n2)cc1,Ki,[24],0.0794 µM (active)
same,Ki,[25],0.00316 µM (active)
same,Ki,[26],0.0126 µM (active)
same,Ki,[27],0.00501 µM (active)
same,Ki,[28],0.01 µM (active)
same,Ki,[29],0.01 µM (active)
same,Ki,[30],0.794 µM (active)
N#CC(c1c(F)cccc1F)c1c(Cl)cnn(Cc2cccc3ccccc23)c1=O (stereo not drawn),IC50,[31],1.61 µM (active)
same,IC50,[32],1.61 µM (active)
O=C1NC[C@H](c2ccccc2)OC(=O)[C@@H](Cc2ccc(F)cc2)C/C=C\C[C@H]1CC(=O)N(CCO)Cc1ccccc1,IC50,[33],> 64.6 µM (inactive)
same,IC50,[34],> 64.6 µM (inactive)
same,IC50,[35],30.3 µM (inactive)
Cc1ccc(NC(=O)CCSc2nnc3scc(-c4ccccc4)n23)cc1,IC50,[36],> 99 µM (inactive)
same,IC50,[37],> 99 µM (inactive)
